Laboratory results taken from the supplement of paper PMC10307832.

Columns and labels:
Assay in all cases: relative viability (nuclei count vs DMSO), 5 days (fraction); higher = more cells survive
Kobe2602 = compound: C1=CC(=CC=C1NC(=S)NNC2=C(C=C(C=C2[N+](=O)[O-])C(F)(F)F)[N+](=O)[O-])F [Kobe2602]
In short: (§1)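 Five library-drug doses, separated by factors of √10, were pinned into 1536-well plates holding lung cancer cell lines after an overnight stay at 37 °C. Cells were fixed, permeabilised and Hoechst-stained in one step after 5 days without medium change, then imaged at 4×. Viability compares treated-well with vehicle-well nuclei, counted in MetaXpress, as a median across plates. Passing plates had control CV below 25% and at least one doubling.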

Cabozantinib = compound: COc1cc2nccc(Oc3ccc(NC(=O)C4(C(=O)Nc5ccc(F)cc5)CC4)cc3)c2cc1OC [Cabozantinib]
In short: as §1

Zosuquidar = compound: O[C@@H](COc1cccc2ncccc12)CN1CCN([C@@H]2c3ccccc3[C@@H]3[C@H](c4ccccc42)C3(F)F)CC1 [Zosuquidar]
In short: as §1

[1] = compound: COc1cc2nccc(Oc3ccc(NC(=O)C4(C(=O)Nc5ccc(F)cc5)CC4)cc3)c2cc1OC [Cabozantinib] + C[C@@H](Oc1cc(-c2cnn(C3CCNCC3)c2)cnc1N)c1c(Cl)ccc(F)c1Cl [Crizotinib] (partner 1 µM)
In short: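 The day after seeding in 1536-well plates, lung cancer cell lines were treated by pin tool with a single drug, or with a fixed anchor-drug dose together with five library-drug doses (not always all listed) in √10 steps. After 5 days, a combined fix-and-stain solution (final 0.05% Triton X-100, 1% formaldehyde, 1 ug/ml Hoechst) was added. Nuclei counted on 4× images gave relative viability as treated counts over vehicle counts, reported as the median of duplicate plates.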

| Cell Line | relative viability (Kobe2602; 0.2 µM) | relative viability (Kobe2602; 0.6325 µM) | relative viability (Kobe2602; 2 µM) | relative viability (Kobe2602; 6.325 µM) | relative viability (Kobe2602; 20 µM) | relative viability (Cabozantinib; 0.02 µM) | relative viability (Cabozantinib; 0.06325 µM) | relative viability (Cabozantinib; 0.2 µM) | relative viability (Cabozantinib; 0.6325 µM) | relative viability (Cabozantinib; 2 µM) | relative viability (Zosuquidar; 0.01 µM) | relative viability (Zosuquidar; 0.03162 µM) | relative viability (Zosuquidar; 0.1 µM) | relative viability (Zosuquidar; 0.3162 µM) | relative viability (Zosuquidar; 1 µM) | relative viability ([1]; first compound 0.02 µM) | relative viability ([1]; first compound 0.06325 µM) | relative viability ([1]; first compound 0.2 µM) | relative viability ([1]; first compound 0.6325 µM) | relative viability ([1]; first compound 2 µM) |
| --- | --- | --- | --- | --- | --- | --- | --- | --- | --- | --- | --- | --- | --- | --- | --- | --- | --- | --- | --- | --- |
| LOU-NH91 | 0.993 | 1.05 | 0.912 | 0.999 | 1.04 | 0.919 | 1.13 | 0.885 | 0.926 | 0.975 | 0.888 | 0.953 | 0.775 | 1.01 | 0.922 | 0.736 | 0.751 | 0.531 | 0.728 | 0.725 |
| LU99A | 0.908 | 0.998 | 0.948 | 0.939 | 1.01 | 0.889 | 1.03 | 0.979 | 0.901 | 0.822 | 0.984 | 0.833 | 0.971 | 1.04 | 0.912 | 0.585 | 0.607 | 0.592 | 0.567 | 0.527 |
| LXF-289 | 1.03 | 1.04 | 0.99 | 0.985 | 0.991 | 1.04 | 1.02 | 0.974 | 1.05 | 1.02 | 1.01 | 1.02 | 1.01 | 1.02 | 0.97 | 0.858 | 0.857 | 0.392 | 0.805 | 0.818 |
| NCI-H23 | 0.97 | 1.26 | 0.944 | 1.12 | 1.1 |  | 1.33 | 0.99 | 0.925 | 0.874 | 0.99 | 0.992 | 0.873 | 1.18 | 0.976 |  | 0.634 | 0.503 | 0.473 | 0.413 |
| NCI-H322M | 0.97 | 1.07 | 1.03 | 0.984 | 1.08 | 0.874 | 1.17 | 0.694 | 0.983 | 0.952 | 0.907 | 1.07 | 0.667 | 0.924 | 0.916 | 1.02 | 1.04 |  | 0.945 | 0.861 |
| NCI-H358 | 0.993 | 1.03 | 0.862 | 0.828 | 0.97 | 0.936 | 1.02 | 0.833 | 0.981 | 0.813 | 0.959 | 0.914 | 0.871 | 0.878 | 0.937 | 0.717 | 0.708 | 0.576 | 0.401 | 0.382 |
| NCI-H441 | 0.973 | 1.2 | 0.917 | 1.04 | 1.16 | 0.738 | 1.23 | 0.96 | 0.793 | 0.879 | 1.14 | 0.881 | 0.829 | 1.06 | 1.17 | 0.684 | 0.799 | 0.857 | 0.717 | 0.668 |
| NCI-H460 | 1.03 | 0.955 | 0.986 | 1.04 | 0.963 | 1.05 | 1.06 | 1.05 | 0.976 | 1.03 | 0.993 | 0.964 | 0.969 | 1.02 | 0.974 | 1.01 | 0.895 | 0.902 | 0.926 | 0.929 |
| NCI-H520 | 1.01 | 1.09 | 0.966 | 0.936 | 0.957 | 1.05 | 0.959 | 0.962 | 0.953 | 0.951 | 0.986 | 1.04 |  | 1.08 | 1.05 | 1.03 | 0.843 | 0.758 | 0.644 | 0.596 |
| NCI-H596 | 1.02 | 0.927 | 1.01 | 0.92 | 1.11 | 1.1 | 1.17 | 1.06 | 1.01 | 0.983 | 1.06 | 0.806 | 1.04 | 1.14 | 1.04 | 1.06 | 1.06 | 0.87 | 1.01 | 0.888 |
| NCI-H647 | 0.938 | 1.09 | 0.936 | 0.91 | 0.948 | 0.994 | 1.14 | 0.986 | 0.92 | 0.881 | 0.908 | 0.951 | 0.918 | 1.13 | 0.884 | 1.23 | 1.58 | 1.05 | 1.07 | 0.877 |
| NCI-H650 | 0.913 | 1.11 | 0.885 | 0.986 | 0.905 | 0.745 | 0.966 | 1.12 | 0.86 | 0.899 | 1.02 | 0.836 | 0.807 | 1.12 | 0.851 | 0.857 | 0.692 | 0.836 | 0.792 | 0.757 |
| NCI-H661 | 1 | 0.952 | 0.983 | 0.991 | 1.02 | 0.986 | 1.03 | 1.01 | 1.02 | 1.06 | 0.945 | 0.976 | 0.91 | 1.03 | 0.982 |  | 0.991 | 1.13 | 0.918 | 1.03 |
| NCI-H727 | 1.07 | 0.952 | 0.878 | 0.85 | 0.938 | 0.852 | 1.05 | 0.808 | 0.912 | 0.961 | 0.971 | 1.06 | 0.8 | 1.13 | 1.01 | 0.934 | 0.866 | 0.786 | 1.03 | 0.896 |
